Test results published in patent US8471061B2 (priority 2004, dated 2013).
“And” between values parts separate entries of the source, which are not always exact repeats. Equal values may be shown once. Read-outs that look alike come from different tables or passages of the source.

Tests used:
[1] = test system: radish; assay: Plant activating effect, foliar application, radish; format: in vivo; settings: 21 days, 12 seeds
Description: After 600 g of upland soil was packed in a porcelain pot of 12 cm in inner diameter, 12 grains of radish seeds were sowed therein, covered with 5 mm in depth of the soil and allowed to grow in a green house. Foliar application treatment was carried out once a day using the following application liquids. Conditions of the leaves 21 days thereafter were observed.

[2] = test system: Salmonella typhimurium TA 100; assay: Back mutation test, TA100; format: cell-based; settings: for number of back mutation, single plates: Phosphate
Description: (§1) A test was carried out in accordance with the “Standard of Mutagenicity Tests Using Microorganisms” (Ministry of Labor Notification No. 77, 1988) (partial revision by Ministry of Labor Notification No. 67, 1997) and “Regarding the Tests Concerning Novel Chemical Substances and the like” (dated Nov. 21, 2003: Yaku-Shoku-Hatsu No. 1121002, 2003.11.13 Sei-Kyoku, No. 2, Kan-Ho-Ki-Hatsu No. 031121002). To 0.1 ml of a solution prepared by dissolving 5% (w/v) of 5-aminolevulinic acid phosphate in distilled water (Wako Pure Chemical Industries), 0.5 ml of 0.1 M sodium-phosphate buffer (pH 7.4) (0.5 ml S9 mix in the case of metabolism activation test) was added, and 0.1 ml of each test strain suspension (5 strains of histidine-less Salmonella typhimurium TA 100, TA 98, TA 1535 and TA 1537 and tryptophan-less Escherichia coli WP2 uvrA were used (Japan Bioassay Research Center)) was further added thereto, followed by pre-incubation at 37° C. for 20 minutes while shaking. After completion of the culturing, 2.0 ml of top agar kept at 45° C. in advance was added thereto and layered on a minimum glucose agar plate medium. In this case, 2 plates were arranged for each dosage. However, 3 plates were arranged for a solvent control (negative control). […] In the measurement, an inner area of about 80 mm in diameter of a plate of 86 mm in diameter (84 mm in inner diameter) was measured using an automatic colony analyzer (CA-11: manufactured by System Science), and calculated by carrying out area correction and counting loss correction using a personal computer. However, since reliability of the automatic colony analyzer is reduced when the number of colonies is 1,500 or more, 5 points in the plate were manually measured under the stereoscopic microscope to carry out area correction of the average value. A dosage setting test was carried out on 7 dosages diluted at a common ratio of 4, using a dosage of 5,000 μg/plate as the maximum which is the maximum dosage defined by the guideline. […] Growth inhibition of the strains by this substance to be tested was not found. […] Thus, this test was carried out by setting 5 dosages diluted at a common ratio of 2, using a dosage of 5,000 μg/plate as the maximum which is the maximum dosage defined by the guideline.

[3] = test system: Salmonella typhimurium TA 98; assay: Back mutation test, TA98; format: cell-based
Description: as §1

[4] = test system: female rats (Sprague-Dawley CD species); settings: for Dead animals: 2000 mg/kg oral, per animal
Description: This test was carried out in accordance with the OECD Guideline No. 423 “Acute Oral Toxicity-Acute Toxicity Grading Method” (adopted on Dec. 17, 2001). Fasted female rats (Sprague-Dawley CD species) of 3 animals per group were treated with 5-aminolevulinic acid phosphate at a dose of 300 mg per kg body weight. In addition, other fasted female rats of two or more groups were treated at a dose of 2000 mg per kg body weight. They were observed after the administration continuously for 2 weeks.

## Cl.NCC(=O)CCC(=O)O [5-aminolevulinic acid hydrochloride, reference compound]
[1]; 1 ppm in tap water
  plants judged 0: Abnormality was not found on the leaf surface: 4 plants
  plants judged 1: A region discolored to yellow was found on the leaf surface: 6 plants
  plants judged 2: A necrotic region was found on the leaf surface: 2 plants
[1]; 10 ppm in tap water
  plants judged 0: Abnormality was not found on the leaf surface: 4 plants
  plants judged 1: A region discolored to yellow was found on the leaf surface: 4 plants
  plants judged 2: A necrotic region was found on the leaf surface: 4 plants
[1]; 100 ppm in tap water
  plants judged 0: Abnormality was not found on the leaf surface: 3 plants
  plants judged 1: A region discolored to yellow was found on the leaf surface: 5 plants
  plants judged 2: A necrotic region was found on the leaf surface: 4 plants

## NCC(=O)CCC(=O)O.O=P(O)(O)O [5-aminolevulinic acid phosphate, 5-aminolevulinic Acid Phosphate]
[2]; S9 Mix(+), 313 μg/plate
  number of back mutation, mean (in parentheses): (134) colonies/plate
  number of back mutation, single plates: 146 colonies/plate and 122 colonies/plate
[2]; S9 Mix(+), 625 μg/plate
  number of back mutation, mean (in parentheses): (102) colonies/plate
  number of back mutation, single plates: 107 colonies/plate and 96 colonies/plate
[2]; S9 Mix(+), 1250 μg/plate
  number of back mutation, mean (in parentheses): (129) colonies/plate
  number of back mutation, single plates: 128 colonies/plate and 129 colonies/plate
[2]; S9 Mix(+), 2500 μg/plate
  number of back mutation, mean (in parentheses): (106) colonies/plate
  number of back mutation, single plates: 109 colonies/plate and 102 colonies/plate
[2]; S9 Mix(+), 5000 μg/plate
  number of back mutation, mean (in parentheses): (133) colonies/plate
  number of back mutation, single plates: 130 colonies/plate and 136 colonies/plate
[2]; S9 Mix(−), 313 μg/plate
  number of back mutation, mean (in parentheses): (85) colonies/plate
  number of back mutation, single plates: 87 colonies/plate and 82 colonies/plate
[2]; S9 Mix(−), 625 μg/plate
  number of back mutation, mean (in parentheses): (90) colonies/plate
  number of back mutation, single plates: 84 colonies/plate and 95 colonies/plate
[2]; S9 Mix(−), 1250 μg/plate
  number of back mutation, mean (in parentheses): (99) colonies/plate
  number of back mutation, single plates: 84 colonies/plate and 114 colonies/plate
[2]; S9 Mix(−), 2500 μg/plate
  number of back mutation, mean (in parentheses): (79) colonies/plate
  number of back mutation, single plates: 76 colonies/plate and 82 colonies/plate
[2]; S9 Mix(−), 5000 μg/plate
  number of back mutation, mean (in parentheses): (107) colonies/plate
  number of back mutation, single plates: 115 colonies/plate and 99 colonies/plate
[3]; S9 Mix(+), 313 μg/plate
  number of back mutation, mean (in parentheses): (12) colonies/plate
[3]; S9 Mix(+), 313 μg/plate, Phosphate
  number of back mutation, single plates: 13 colonies/plate and 11 colonies/plate
[3]; S9 Mix(+), 625 μg/plate
  number of back mutation, mean (in parentheses): (9) colonies/plate
  number of back mutation, single plates: 9 colonies/plate
[3]; S9 Mix(+), 1250 μg/plate
  number of back mutation, mean (in parentheses): (21) colonies/plate
[3]; S9 Mix(+), 1250 μg/plate, Phosphate
  number of back mutation, single plates: 14 colonies/plate and 27 colonies/plate
[3]; S9 Mix(+), 2500 μg/plate
  number of back mutation, mean (in parentheses): (11) colonies/plate
[3]; S9 Mix(+), 5000 μg/plate
  number of back mutation, mean (in parentheses): (21) colonies/plate
[3]; S9 Mix(+), 5000 μg/plate, Phosphate
  number of back mutation, single plates: 20 colonies/plate and 21 colonies/plate
[3]; S9 Mix(−), 313 μg/plate
  number of back mutation, mean (in parentheses): (8) colonies/plate
[3]; S9 Mix(−), 313 μg/plate, Phosphate
  number of back mutation, single plates: 9 colonies/plate and 7 colonies/plate
[3]; S9 Mix(−), 625 μg/plate
  number of back mutation, mean (in parentheses): (9) colonies/plate
[3]; S9 Mix(−), 1250 μg/plate
  number of back mutation, mean (in parentheses): (6) colonies/plate
[3]; S9 Mix(−), 2500 μg/plate
  number of back mutation, mean (in parentheses): (16) colonies/plate
[3]; S9 Mix(−), 2500 μg/plate, Phosphate
  number of back mutation, single plates: 15 colonies/plate and 17 colonies/plate
[3]; S9 Mix(−), 5000 μg/plate
  number of back mutation, mean (in parentheses): (8) colonies/plate
[3]; S9 Mix(−), 5000 μg/plate, Phosphate
  number of back mutation, single plates: 9 colonies/plate and 7 colonies/plate
[4]; 0.5 hour after administration
  Dead animals: 0
[4]; 1 hour after administration
  Dead animals: 0
[4]; 2 hour after administration
  Dead animals: 0
[4]; 4 hour after administration
  Dead animals: 0
[4]; day 1 after administration
  Dead animals: 0
[4]; day 2 after administration
  Dead animals: 0
[4]; day 3 after administration
  Dead animals: 0
[4]; day 4 after administration
  Dead animals: 0
[4]; day 5 after administration
  Dead animals: 0
[4]; day 6 after administration
  Dead animals: 0
[4]; day 7 after administration
  Dead animals: 0
[4]; day 8 after administration
  Dead animals: 0
[4]; day 9 after administration
  Dead animals: 0
[4]; day 10 after administration
  Dead animals: 0
[4]; day 11 after administration
  Dead animals: 0
[4]; day 12 after administration
  Dead animals: 0
[4]; day 13 after administration
  Dead animals: 0
[4]; day 14 after administration
  Dead animals: 0
[4]; 300 and 2000 mg per kg body weight, 2 weeks
  death: death was not found in all of the rats
[4]; fasted female rats, observed 2 weeks
  acute oral 50% lethal dose (LD50): > 2,500 mg per kg body weight
